Assay results as given in patent US5508266A, “Gem-disubstituted amino acid derivatives” (Ciba-Geigy Corporation, priority 1994, dated 1996).

What was measured:
[1] = target: T1, neutral endopeptidase (NEP, EC 3.4.24.11) (Rattus norvegicus, UniProt P07861); experiment: GAAP in vitro assay of neutral endopeptidase (rat kidney cortex membranes); type: biochemical; details: substrate glutaryl-Ala-Ala-Phe-2-naphthylamide 500 μM, pH 7.4 at 25° C.
T1 construct: 4.2 μg of protein (rat kidney cortex membranes prepared by method of Maeda et at, 1983); from tissue; host or cells: rat kidney cortex membranes
T1 sequence (P07861 1-750): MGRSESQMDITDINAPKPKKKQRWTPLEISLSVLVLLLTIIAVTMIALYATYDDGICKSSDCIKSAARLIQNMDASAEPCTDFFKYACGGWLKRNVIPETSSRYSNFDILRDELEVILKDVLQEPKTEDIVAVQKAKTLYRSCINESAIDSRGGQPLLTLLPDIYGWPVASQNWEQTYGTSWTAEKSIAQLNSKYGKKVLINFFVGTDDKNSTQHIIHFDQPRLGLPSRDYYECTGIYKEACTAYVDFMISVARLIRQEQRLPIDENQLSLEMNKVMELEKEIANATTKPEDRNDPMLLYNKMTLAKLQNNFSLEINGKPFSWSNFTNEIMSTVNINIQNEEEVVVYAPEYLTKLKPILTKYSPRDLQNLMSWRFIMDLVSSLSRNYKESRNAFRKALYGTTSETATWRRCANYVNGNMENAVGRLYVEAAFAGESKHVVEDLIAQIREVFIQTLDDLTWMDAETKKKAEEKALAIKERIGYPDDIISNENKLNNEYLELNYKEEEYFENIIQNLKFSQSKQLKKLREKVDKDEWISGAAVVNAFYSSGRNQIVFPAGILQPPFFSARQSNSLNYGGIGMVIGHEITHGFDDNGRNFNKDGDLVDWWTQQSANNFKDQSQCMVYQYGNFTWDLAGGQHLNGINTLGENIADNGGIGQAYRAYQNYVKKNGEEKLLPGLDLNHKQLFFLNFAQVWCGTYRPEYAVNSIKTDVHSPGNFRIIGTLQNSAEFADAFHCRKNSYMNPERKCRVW
Method: In vitro testing is most appropriate for the free carboxylic acids of the invention. The test compound is dissolved in dimethyl sulfoxide, ethanol, or 0.25M sodium bicarbonate solution, and the solution is diluted with buffer to the desired concentration.
The in vitro inhibition of neutral endopeptidase (NEP, EC 3.4.24.11) can be determined as follows:
Neutral endopeptidase 3.4.24.11 activity is determined by the hydrolysis of the substrate glutaryl-Ala-Ala-Phe-2-naphthylamide (GAAP) using a modified procedure of Orlowski and Wilk (1981). The incubation mixture (total volume 125 μl) contains 4.2 μg of protein (rat kidney cortex membranes prepared by method of Maeda et at, 1983), 50 mM tris buffer, pH 7.4 at 25° C., 500 μM substrate (final concentration), and leucine aminopeptidase M (2.5 μg). The mixture is incubated for 10 minutes at 25° C. and 100 μl of fast garnet (250 μg fast garnet/ml of 10% Tween 20 in 1M sodium acetate, pH 4.2) is added. Enzyme activity is measured spectrophotometrically at 540 nm. One unit of NEP 24.11 activity is defined as 1 nmol of 2-naphthylamine released per minute at 25° C. at pH 7.4. IC50 values are determined, i.e. the concentration of test compound required for 50% inhibition of the release of 2-naphthylamine.

[2] = target: T2, angiotensin converting enzyme (Rattus norvegicus, UniProt P47820); experiment: Inhibition of angiotensin I induced pressor response in normotensive rats; type: in vivo; details: 10 mg/Kg i.v., male normotensive anesthetized rats, 300 ng/kg angiotensin I i.v. challenge
T2 construct: from tissue; host or cells: whole animal: male, normotensive rats
T2 sequence (P47820 36-1313): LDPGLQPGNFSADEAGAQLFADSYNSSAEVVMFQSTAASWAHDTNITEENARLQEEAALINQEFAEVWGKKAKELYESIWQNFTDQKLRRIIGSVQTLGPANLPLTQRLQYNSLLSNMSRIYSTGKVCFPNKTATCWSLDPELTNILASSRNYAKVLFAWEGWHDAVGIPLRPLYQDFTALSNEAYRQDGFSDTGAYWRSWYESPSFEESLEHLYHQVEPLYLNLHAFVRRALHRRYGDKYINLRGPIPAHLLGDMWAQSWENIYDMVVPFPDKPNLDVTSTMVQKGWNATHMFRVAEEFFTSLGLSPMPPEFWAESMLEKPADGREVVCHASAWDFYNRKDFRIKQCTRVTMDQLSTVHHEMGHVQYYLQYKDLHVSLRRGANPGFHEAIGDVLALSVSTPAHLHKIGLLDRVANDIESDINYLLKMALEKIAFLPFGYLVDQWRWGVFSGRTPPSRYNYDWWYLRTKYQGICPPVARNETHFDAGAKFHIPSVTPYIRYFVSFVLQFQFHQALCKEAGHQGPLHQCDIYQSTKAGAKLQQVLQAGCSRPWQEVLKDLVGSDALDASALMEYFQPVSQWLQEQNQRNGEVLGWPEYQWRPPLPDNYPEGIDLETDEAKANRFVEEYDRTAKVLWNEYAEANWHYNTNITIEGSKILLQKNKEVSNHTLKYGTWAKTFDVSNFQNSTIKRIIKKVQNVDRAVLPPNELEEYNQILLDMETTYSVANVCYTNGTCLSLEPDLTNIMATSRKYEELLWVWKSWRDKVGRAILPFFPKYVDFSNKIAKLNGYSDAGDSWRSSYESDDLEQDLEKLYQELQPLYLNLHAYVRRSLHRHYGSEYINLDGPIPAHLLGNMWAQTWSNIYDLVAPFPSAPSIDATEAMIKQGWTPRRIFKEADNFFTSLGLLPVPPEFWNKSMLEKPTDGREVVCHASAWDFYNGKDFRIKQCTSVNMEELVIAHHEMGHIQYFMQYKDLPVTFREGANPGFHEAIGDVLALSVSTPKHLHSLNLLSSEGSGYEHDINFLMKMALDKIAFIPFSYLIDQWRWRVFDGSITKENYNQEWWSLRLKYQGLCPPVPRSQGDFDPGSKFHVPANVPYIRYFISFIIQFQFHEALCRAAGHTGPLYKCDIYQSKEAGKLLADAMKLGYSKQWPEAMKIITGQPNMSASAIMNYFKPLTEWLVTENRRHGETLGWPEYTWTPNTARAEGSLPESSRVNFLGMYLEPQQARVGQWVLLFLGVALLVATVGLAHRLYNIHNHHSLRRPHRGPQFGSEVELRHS
Method: The in vivo test for intravenously administered compounds is performed with male, normotensive rats, which are anesthetized with sodium metofan. A femoral artery and femoral vein are cannulated respectively for direct blood pressure measurement on i.v. administration of angiotensin I and i.v. or p.o. administration of a compound of this invention. After the basal blood pressure is stabilized, pressor responses to 3 challenges of 300 ng/kg angiotensin I i.v., at 15 minute intervals, are obtained. Such pressure responses are usually again obtained at 15, 30, 60 and 90 minutes, and then every hour up to 6 hours after i.v. or p.o. administration of the compound to be tested, and compared with the initial responses. Any observed decrease of said pressor response is an indication of Angiotensin I converting enzyme inhibition.

Q: For `CC(C)[C@H](S)C(=O)NC(C)(C)C(=O)N[C@@H](Cc1ccc(O)cc1)C(=O)O` [Example 2, N-[2-(2(S)-mercapto-3-methyl-1-oxobutylamino)-2-methyl-1-oxopropyl]-L-tyrosine], which IC50 [1] is on record?
A: ~9.2 nM

Q: And the “duration of inhibition of the Angiotensin I induced pressor response” value [2]?
A: 6 h
